Reference: patent US20220119354A1, “DIAMINO-SUBSTITUTED PYRIDINES AND PYRIMIDINES AS HERBICIDES” (FMC Corporation, priority 2019, published 2022)

How the values were obtained:
Type in all cases: in vivo
[1] = test system: pigweed (Amaranthus retroflexus); experiment: Test A preemergence, pigweed; details: 0 to 100 scale, 0 is no effect, 100 is complete control
How it was run: (§1)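 Seeds sown in loam–sand blend received a directed soil spray of test chemical in non-phytotoxic solvent with surfactant (preemergence); postemergence plants at 2–10 cm, one- to two-leaf stage, were sprayed with the same formulation. Injury rated visually versus untreated controls after ~10 d in greenhouse, 0–100 scale.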

[2] = test system: wheat (Triticum aestivum); experiment: Test A postemergence, wheat; details: 0 to 100 scale; for Plant response rating, Wheat: 125 g ai/ha, 0 no effect, 100 complete control; for Wheat plant response rating: 500 g ai/ha, 0 is no effect, 100 is complete control
How it was run: as §1

[3] = test system: ryegrass, Italian (Lolium multiflorum); experiment: Test A postemergence, Italian ryegrass; details: 0 to 100 scale; for Plant response rating, Ryegrass, Italian: 125 g ai/ha, 0 no effect, 100 complete control; for Ryegrass, Italian plant response rating: 500 g ai/ha, 0 is no effect, 100 is complete control
How it was run: as §1

[4] = test system: ryegrass, Italian (Lolium multiflorum); experiment: Test A preemergence, Italian ryegrass; details: 0 to 100 scale, 0 is no effect, 100 is complete control
How it was run: as §1

[5] = test system: ragweed (common ragweed, Ambrosia elatior); experiment: Test A preemergence, ragweed; details: 0 to 100 scale, 0 is no effect, 100 is complete control
How it was run: as §1

[6] = test system: corn (Zea mays); experiment: Test A postemergence, corn; details: 0 to 100 scale; for Plant response rating, Corn: 125 g ai/ha, 0 no effect, 100 complete control; for Corn plant response rating: 500 g ai/ha, 0 is no effect, 100 is complete control
How it was run: as §1

[7] = test system: barnyardgrass (Echinochloa crus-galli); experiment: Test A postemergence, barnyardgrass; details: 0 to 100 scale; for Plant response rating, Barnyardgrass: 125 g ai/ha, 0 no effect, 100 complete control; for Barnyardgrass plant response rating: 500 g ai/ha, 0 is no effect, 100 is complete control
How it was run: as §1

[8] = test system: galium (catchweed bedstraw, Galium aparine); experiment: Test A postemergence, galium; details: 0 to 100 scale; for Plant response rating, Galium: 125 g ai/ha, 0 no effect, 100 complete control; for Galium plant response rating: 500 g ai/ha, 0 is no effect, 100 is complete control
How it was run: as §1

[9] = test system: rice (Oryza sativa); experiment: Test B flooded paddy test, rice; details: Flood, 250 g ai/ha, applied to paddy water, 2-leaf stage, visual evaluation after 13 to 15 d
How it was run: (§2)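 Application was made into paddy water of pots flooded 3 cm deep at treatment, with seedlings at the 2-leaf stage. That flood level was kept throughout, and plants stayed under glass 13 to 15 d before visual assessment on a 0–100 control scale.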

[10] = test system: ragweed (common ragweed, Ambrosia elatior); experiment: Test A postemergence, ragweed; details: 0 to 100 scale; for Plant response rating, Ragweed: 125 g ai/ha, 0 no effect, 100 complete control; for Ragweed plant response rating: 500 g ai/ha, 0 is no effect, 100 is complete control
How it was run: as §1

[11] = test system: kochia (Kochia scoparia); experiment: Test A postemergence, kochia; details: 0 to 100 scale; for Plant response rating, Kochia: 125 g ai/ha, 0 no effect, 100 complete control; for Kochia plant response rating: 500 g ai/ha, 0 is no effect, 100 is complete control
How it was run: as §1

[12] = test system: ducksalad (Heteranthera limosa); experiment: Test B flooded paddy test, ducksalad; details: Flood, 250 g ai/ha, applied to paddy water, 2-leaf stage, visual evaluation after 13 to 15 d
How it was run: as §2

[13] = test system: blackgrass (Alopecurus myosuroides); experiment: Test A postemergence, blackgrass; details: 0 to 100 scale; for Plant response rating, Blackgrass: 125 g ai/ha, 0 no effect, 100 complete control; for Blackgrass plant response rating: 500 g ai/ha, 0 is no effect, 100 is complete control
How it was run: as §1

[14] = test system: barnyardgrass (Echinochloa crus-galli); experiment: Test A preemergence, barnyardgrass; details: 0 to 100 scale, 0 is no effect, 100 is complete control
How it was run: as §1

[15] = test system: foxtail, giant (Setaria faberii); experiment: Test A preemergence, giant foxtail; details: 0 to 100 scale, 0 is no effect, 100 is complete control
How it was run: as §1

[16] = test system: sedge, umbrella (small-flower umbrella sedge, Cyperus difformis); experiment: Test B flooded paddy test, umbrella sedge; details: Flood, 250 g ai/ha, applied to paddy water, 2-leaf stage, visual evaluation after 13 to 15 d
How it was run: as §2

[17] = test system: barnyardgrass (Echinochloa crus-galli); experiment: Test B flooded paddy test, barnyardgrass; details: Flood, 250 g ai/ha, applied to paddy water, 2-leaf stage, visual evaluation after 13 to 15 d
How it was run: as §2

[18] = test system: foxtail, giant (Setaria faberii); experiment: Test A postemergence, giant foxtail; details: 0 to 100 scale; for Plant response rating, Foxtail, Giant: 125 g ai/ha, 0 no effect, 100 complete control; for Foxtail, Giant plant response rating: 500 g ai/ha, 0 is no effect, 100 is complete control
How it was run: as §1

[19] = test system: pigweed (Amaranthus retroflexus); experiment: Test A postemergence, pigweed; details: 0 to 100 scale; for Plant response rating, Pigweed: 125 g ai/ha, 0 no effect, 100 complete control; for Pigweed plant response rating: 500 g ai/ha, 0 is no effect, 100 is complete control
How it was run: as §1

[20] = test system: kochia (Kochia scoparia); experiment: Test A preemergence, kochia; details: 0 to 100 scale, 0 is no effect, 100 is complete control
How it was run: as §1

SMILES | Pigweed plant response rating ([1]; 125 g ai/ha) | Pigweed plant response rating ([1]; 500 g ai/ha) | Plant response rating, Wheat [2] | Wheat plant response rating [2] | Plant response rating, Ryegrass, Italian [3] | Ryegrass, Italian plant response rating [3] | Ryegrass, Italian plant response rating ([4]; 125 g ai/ha) | Ryegrass, Italian plant response rating ([4]; 500 g ai/ha) | Ragweed plant response rating ([5]; 125 g ai/ha) | Ragweed plant response rating ([5]; 500 g ai/ha) | Plant response rating, Corn [6] | Corn plant response rating [6] | Plant response rating, Barnyardgrass [7] | Barnyardgrass plant response rating [7] | Plant response rating, Galium [8] | Galium plant response rating [8] | Plant response rating, Rice (0 to 100 scale, 0 is no effect, 100 is complete control) [9] | Plant response rating, Ragweed [10] | Ragweed plant response rating [10] | Plant response rating, Kochia [11] | further results
C[C@@H](Nc1ncc(C(F)(F)F)c(N)n1)c1cc2ccc(F)cc2s1 [Compound 46] | 100 | 100 | 0 | 0 | 0 | 40 | 20 | 80 | 80 | 100 | 0 | 60 | 20 | 60 | 60 | 90 | 10 | 50 | 80 | 90 | Kochia plant response rating [11]: 90; Plant response rating, Ducksalad (0 to 100 scale, 0 is no effect, 100 is complete control) [12]: 30; Plant response rating, Blackgrass [13]: 20; Blackgrass plant response rating [13]: 30; Barnyardgrass plant response rating ([14]; 125 g ai/ha): 20; Barnyardgrass plant response rating ([14]; 500 g ai/ha): 90; Foxtail, Giant plant response rating ([15]; 125 g ai/ha): 70; Foxtail, Giant plant response rating ([15]; 500 g ai/ha): 100; Plant response rating, Sedge, Umbrella (0 to 100 scale, 0 is no effect, 100 is complete control) [16]: 95; Plant response rating, Barnyardgrass (0 to 100 scale, 0 is no effect, 100 is complete control) [17]: 40; Plant response rating, Foxtail, Giant [18]: 10; Foxtail, Giant plant response rating [18]: 60; Plant response rating, Pigweed [19]: 100; Pigweed plant response rating [19]: 100; Kochia plant response rating ([20]; 125 g ai/ha): 90; Kochia plant response rating ([20]; 500 g ai/ha): 100
C[C@H](Nc1ncc(C(F)(F)F)c(N)n1)c1cc2ccc(F)cc2s1 [Compound 47] | 0 | 30 | 0 | 0 | 0 | 0 | 0 | 0 | 0 | 0 | 0 | 0 | 0 | 0 | 0 | 0 | 0 | 0 | 0 | 0 | Kochia plant response rating [11]: 60; Plant response rating, Ducksalad (0 to 100 scale, 0 is no effect, 100 is complete control) [12]: 0; Plant response rating, Blackgrass [13]: 0; Blackgrass plant response rating [13]: 30; Barnyardgrass plant response rating ([14]; 125 g ai/ha): 0; Barnyardgrass plant response rating ([14]; 500 g ai/ha): 0; Foxtail, Giant plant response rating ([15]; 125 g ai/ha): 0; Foxtail, Giant plant response rating ([15]; 500 g ai/ha): 0; Plant response rating, Sedge, Umbrella (0 to 100 scale, 0 is no effect, 100 is complete control) [16]: 0; Plant response rating, Barnyardgrass (0 to 100 scale, 0 is no effect, 100 is complete control) [17]: 0; Plant response rating, Foxtail, Giant [18]: 0; Foxtail, Giant plant response rating [18]: 0; Plant response rating, Pigweed [19]: 20; Pigweed plant response rating [19]: 80; Kochia plant response rating ([20]; 125 g ai/ha): 0; Kochia plant response rating ([20]; 500 g ai/ha): 0
CC[C@@H](Nc1ncc(C(F)(F)F)c(N)n1)c1cc2ccc(F)cc2s1 [Compound 48] | 60 | 100 | 0 | 0 | 0 | 40 | 0 | 60 | 30 | 100 | 0 | 30 | 0 | 30 | 60 | 90 | 0 | 20 | 70 | 30 | Kochia plant response rating [11]: 90; Plant response rating, Ducksalad (0 to 100 scale, 0 is no effect, 100 is complete control) [12]: 0; Plant response rating, Blackgrass [13]: 30; Blackgrass plant response rating [13]: 30; Barnyardgrass plant response rating ([14]; 125 g ai/ha): 0; Barnyardgrass plant response rating ([14]; 500 g ai/ha): 40; Foxtail, Giant plant response rating ([15]; 125 g ai/ha): 60; Foxtail, Giant plant response rating ([15]; 500 g ai/ha): 90; Plant response rating, Sedge, Umbrella (0 to 100 scale, 0 is no effect, 100 is complete control) [16]: 0; Plant response rating, Barnyardgrass (0 to 100 scale, 0 is no effect, 100 is complete control) [17]: 0; Plant response rating, Foxtail, Giant [18]: 10; Foxtail, Giant plant response rating [18]: 30; Plant response rating, Pigweed [19]: 90; Pigweed plant response rating [19]: 100; Kochia plant response rating ([20]; 125 g ai/ha): 0; Kochia plant response rating ([20]; 500 g ai/ha): 80
CC[C@H](Nc1ncc(C(F)(F)F)c(N)n1)c1cc2ccc(F)cc2s1 [Compound 49] | 0 | 0 | 0 | 0 | 0 | 0 | 0 | 0 | 0 | 0 | 0 | 0 | 0 | 0 | 0 | 0 | 0 | 0 | 0 | 0 | Kochia plant response rating [11]: 0; Plant response rating, Ducksalad (0 to 100 scale, 0 is no effect, 100 is complete control) [12]: 0; Plant response rating, Blackgrass [13]: 0; Blackgrass plant response rating [13]: 0; Barnyardgrass plant response rating ([14]; 125 g ai/ha): 0; Barnyardgrass plant response rating ([14]; 500 g ai/ha): 0; Foxtail, Giant plant response rating ([15]; 125 g ai/ha): 0; Foxtail, Giant plant response rating ([15]; 500 g ai/ha): 0; Plant response rating, Sedge, Umbrella (0 to 100 scale, 0 is no effect, 100 is complete control) [16]: 0; Plant response rating, Barnyardgrass (0 to 100 scale, 0 is no effect, 100 is complete control) [17]: 0; Plant response rating, Foxtail, Giant [18]: 0; Foxtail, Giant plant response rating [18]: 10; Plant response rating, Pigweed [19]: 0; Pigweed plant response rating [19]: 50; Kochia plant response rating ([20]; 125 g ai/ha): 0; Kochia plant response rating ([20]; 500 g ai/ha): 0
